According to PMC9029360, “Cyclooxygenase-Inhibiting Platinum(IV) Prodrugs with Potent Anticancer Activity” (Pharmaceutics, 2022):
Where two headings read alike, the source gives them in different places.

Legend:
[1] = system: cisplatin-resistant ADDP ovarian (subclone of A2780 cell line); conditions: MTT, 72 h, ref [2] Macias et al., Eur. J. Chem. 2015; cited from earlier work
[2] = system: A2780 (ovarian) and ADDP (cisplatin-resistant ovarian) cancer cell lines; assay: Cellular platinum accumulation by ICP-MS; format: cell-based; conditions: 4 h
MIA pancreas [3] = conditions: MTT, 72 h, ref [2] Macias et al., Eur. J. Chem. 2015; cited from earlier work
H460 lung [4] = conditions: MTT, 72 h, ref [2] Macias et al., Eur. J. Chem. 2015; cited from earlier work
A2780 ovarian [5] = conditions: MTT, 72 h, ref [2] Macias et al., Eur. J. Chem. 2015; cited from earlier work
BE2-C neuroblastoma [6] = conditions: MTT, 72 h, ref [2] Macias et al., Eur. J. Chem. 2015; cited from earlier work
[7] = system: cisplatin-resistant ADDP ovarian (subclone of A2780 cell line); assay: In vitro cytotoxicity MTT assay, cisplatin-resistant ADDP ovarian; format: cell-based
ADDP cell line = assay: Cellular platinum accumulation by ICP-MS, ADDP; format: cell-based
MCF-7 breast [8] = conditions: MTT, 72 h, ref [2] Macias et al., Eur. J. Chem. 2015; cited from earlier work
SJ-G2 glioblastoma [9] = conditions: MTT, 72 h, ref [2] Macias et al., Eur. J. Chem. 2015; cited from earlier work
[10] = system: MCF10A breast cell line (non-tumour derived); conditions: MTT, 72 h, ref [2] Macias et al., Eur. J. Chem. 2015; cited from earlier work
[11] = system: Du145 prostate cancer cell line; conditions: MTT, 72 h, ref [2] Macias et al., Eur. J. Chem. 2015; cited from earlier work
[12] = system: HT29 colon cancer cell line; conditions: MTT, 72 h, ref [2] Macias et al., Eur. J. Chem. 2015; cited from earlier work
U87 glioblastoma [13] = conditions: MTT, 72 h, ref [2] Macias et al., Eur. J. Chem. 2015; cited from earlier work
A431 skin [14] = conditions: MTT, 72 h, ref [2] Macias et al., Eur. J. Chem. 2015; cited from earlier work
A431 skin [15] = assay: In vitro cytotoxicity MTT assay, A431 skin; format: cell-based; conditions: Homo sapiens, A-431, 72 h drug exposure, n = 3
[16] = system: MCF10A breast cell line (non-tumour derived); assay: In vitro cytotoxicity MTT assay, non-tumour MCF10A breast; format: cell-based; conditions: Homo sapiens, MCF-10A, MCF10A (non-cancerous), 72 h drug exposure, n = 3
MCF-7 breast [17] = assay: In vitro cytotoxicity MTT assay, MCF-7 breast; format: cell-based; conditions: Homo sapiens, MCF7, 72 h drug exposure, n = 3
[18] = system: Du145 prostate cancer cell line; assay: In vitro cytotoxicity MTT assay, Du145 prostate; format: cell-based; conditions: Homo sapiens, DU-145, 72 h drug exposure, n = 3
SJ-G2 glioblastoma [19] = assay: In vitro cytotoxicity MTT assay, SJ-G2 glioblastoma; format: cell-based; conditions: 72 h drug exposure, n = 3
human COX-2 [20] = molecular target: T1, human COX-2 (Homo sapiens, UniProt P35354); assay: biochemical; conditions: read-out: COX-2 inhibition
T1 sequence (P35354 18-604): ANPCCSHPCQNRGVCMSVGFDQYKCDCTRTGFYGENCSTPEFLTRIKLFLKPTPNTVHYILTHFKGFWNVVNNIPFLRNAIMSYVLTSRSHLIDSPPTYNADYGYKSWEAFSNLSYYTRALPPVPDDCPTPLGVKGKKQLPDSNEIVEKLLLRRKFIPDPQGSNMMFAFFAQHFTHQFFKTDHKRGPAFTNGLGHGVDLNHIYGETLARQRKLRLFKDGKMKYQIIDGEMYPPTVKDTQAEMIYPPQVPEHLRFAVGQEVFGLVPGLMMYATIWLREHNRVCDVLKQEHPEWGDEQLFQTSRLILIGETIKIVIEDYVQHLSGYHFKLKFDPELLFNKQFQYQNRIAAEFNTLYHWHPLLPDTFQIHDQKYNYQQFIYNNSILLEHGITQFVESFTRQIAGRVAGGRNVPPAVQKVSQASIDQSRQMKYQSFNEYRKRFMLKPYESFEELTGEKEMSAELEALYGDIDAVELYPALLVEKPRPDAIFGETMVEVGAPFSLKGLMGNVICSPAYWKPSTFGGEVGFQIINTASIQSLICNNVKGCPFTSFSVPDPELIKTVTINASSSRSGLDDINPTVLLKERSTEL
Experimental: (§1) The preparation of standards and samples and the completion of the assay were carried out following the manufacturer’s protocol. As described below, the completion of the assay required three main steps: the preparation of standards, the COX reaction and EIA.
(§2) The preparation of standards involved serial dilution of the prostaglandin (PG)-screening ELISA standard with ELISA buffer.
(§3) All tubes were incubated for 10 min at 37 °C. To initiate the reaction, arachidonic acid (10 µL) was added to each tube. This was incubated for 30 s at 37 °C before stannous chloride (30 µL) was added to stop enzyme catalysis. The tubes were removed from the water bath and vortexed, then incubated for five minutes at room temperature.
(§4) For EIA, ELISA buffer (100 µL) was added to non-specific binding (NSB) wells and ELISA buffer (50 µL) was added to maximum binding (B0) wells; 50 µL from each PG screening standard was added to the standard wells in duplicate. A background sample (50 µL) and COX 100% initial activity samples (50 µL) were added to the wells in duplicate. Each inhibitor sample (50 µL) was added to the wells in triplicate. PG screening acetylcholinesterase (AChE) tracer (50 µL) was added to all wells except for the total activity and blank wells. PG screening ELISA antiserum (50 µL) was added to each well except for the total activity, NSB and blank wells. The plate was covered with plastic film and incubated for 18 h at room temperature on an orbital shaker. The wells were emptied and rinsed with wash buffer five times. Ellman’s reagent (200 µL) was added to each well, followed by AChE tracer (5 µL) in the total activity well. The plate was covered with plastic film and left to develop in the dark using an orbital shaker at room temperature for one hour. The absorbance was recorded at 405 nm using a plate reader.

human COX-2 [21] = molecular target: T1, human COX-2
Experimental: as §1, §2, §3, §4

MIA pancreas [22] = assay: In vitro cytotoxicity MTT assay, MIA pancreas; format: cell-based; conditions: 72 h drug exposure, n = 3
A2780 ovarian [23] = assay: In vitro cytotoxicity MTT assay, A2780 ovarian; format: cell-based; conditions: Homo sapiens, 72 h drug exposure, n = 3
BE2-C neuroblastoma [24] = assay: In vitro cytotoxicity MTT assay, BE2-C neuroblastoma; format: cell-based; conditions: Homo sapiens, BE(2)-C, 72 h drug exposure, n = 3
H460 lung [25] = assay: In vitro cytotoxicity MTT assay, H460 lung; format: cell-based; conditions: Homo sapiens, NCI-H460, 72 h drug exposure, n = 3
[26] = system: HT29 colon cancer cell line; assay: In vitro cytotoxicity MTT assay, HT29 colon; format: cell-based; conditions: Homo sapiens, HT-29, 72 h drug exposure, n = 3
U87 glioblastoma [27] = assay: In vitro cytotoxicity MTT assay, U87 glioblastoma; format: cell-based; conditions: 72 h drug exposure, n = 3

N.N.[Cl][Pt][Cl] [Cisplatin, cisplatin]
GI50 [1]: 28 µM | cellular platinum uptake (rank in words) [2]: lowest uptake | GI50 (MIA pancreas [3]): 7.5 µM | GI50 (H460 lung [4]): 900 ± 200 nM | GI50 (A2780 ovarian [5]): 1000 ± 100 nM | GI50 (BE2-C neuroblastoma [6]): 1900 ± 200 nM | fold less active than PHENSS(IV) (GI50 values) ([7]; ADDP cell line): ~ 22 fold | fold decrease in activity in the cisplatin-resistant ADDP cell line compared to the A2780 cell line ([7]; ratio of GI50 values ADDP vs A2780): 28 fold | uptake level, fold lower than PHENSS(IV) (ADDP cell line): ~ two-fold | GI50 (MCF-7 breast [8]): 6.5 ± 0.8 µM | GI50 (SJ-G2 glioblastoma [9]): 400 nM | GI50 [10]: 5.2 µM | GI50 [11]: 1200 ± 100 nM | GI50 [12]: 11.3 µM | GI50 (U87 glioblastoma [13]): 3.8 µM | GI50 (A431 skin [14]): 2400 ± 300 nM

CC(=O)Oc1ccccc1C(=O)O [Aspirin, aspirin]
GI50 (A431 skin [15]): > 50 µM | GI50 [16]: > 50 µM | GI50 (MCF-7 breast [17]): > 50 µM | GI50 ([7]; Homo sapiens, A2780, ADDP (cisplatin-resistant), MTT, 72 h drug exposure, n = 3): > 50 µM | GI50 [18]: > 50 µM | GI50 (SJ-G2 glioblastoma [19]): > 50 µM | inhibition at 700 µM (human COX-2 [20]): 19% | COX-2 inhibition (human COX-2 [21]; at 7 µM): No inhibition | COX-2 inhibition (human COX-2 [21]; at 70 µM): No inhibition | GI50 (MIA pancreas [22]): > 50 µM | GI50 (A2780 ovarian [23]): > 50 µM | GI50 (BE2-C neuroblastoma [24]): > 50 µM | GI50 (H460 lung [25]): > 50 µM | GI50 [26]: > 50 µM | GI50 (U87 glioblastoma [27]): > 50 µM
